Experiments:
[1] = molecular target: Heat shock protein HSP 90-beta (Homo sapiens, UniProt P08238)
Description: Inhibition of HSP90-mediated client protein HER2 degradation

[2] = Half life in plasma of mouse bearing human MM1S cells at 50 mg/kg; assay type: ADME, organism-based; set-up: dose 50 mg/kg
[3] = Half life in tumor of mouse bearing human MM1S cells at 50 mg/kg; assay type: ADME, organism-based, Neoplasm; set-up: dose 50 mg/kg
Rattus norvegicus = assay: Toxicity in iv dosed rat assessed as maximum tolerated dose; assay type: organism-based; settings: in vivo
Canis familiaris = assay: Toxicity in iv dosed dog assessed as maximum tolerated dose; assay type: organism-based, Canis lupus familiaris; settings: in vivo
[4] = Chemical stability assessed as half life; assay type: physicochemical
[5] = Cmax in mouse at 100 mg/kg, po; assay type: ADME, organism-based; set-up: dose 100 mg/kg, route oral; settings: in vivo
[6] = Tmax in mouse at 100 mg/kg, po; assay type: ADME, organism-based; set-up: dose 100 mg/kg, route oral; settings: in vivo
[7] = AUC in mouse at 100 mg/kg, po; assay type: ADME, organism-based; set-up: dose 100 mg/kg, route oral; settings: plasma
[8] = Half life in mouse at 100 mg/kg, po; assay type: ADME, organism-based; set-up: dose 100 mg/kg, route oral; settings: in vivo
Mus musculus = assay: Toxicity in BALB/c mouse assessed as body weight loss at 125 mg/kg, po administered in QDx5 schedule; assay type: organism-based; set-up: dose 125 mg/kg, route oral; settings: in vivo
NCI-N87 = assay: animal or person; settings: Mus musculus, NCI-N87, po, read-out: TGI
Description: Antitumor activity against human NCI-N87 cells xenografted in BALB/c mouse at 125 mg/kg, po administered in QDx5 schedule

BT-474 = assay: animal or person; settings: Mus musculus, BT-474, po, read-out: TGI
Description: Antitumor activity against human BT474 cells xenografted in BALB/c mouse at 120 mg/kg, po administered in QDx5 schedule

animal or person [9] = settings: Homo sapiens, CWR22, po, read-out: TGI
Description: Antitumor activity against human CWR22 cells xenografted in BALB/c mouse at 120 mg/kg, po administered in QDx5 schedule

animal or person [10] = settings: Homo sapiens, U-87 MG, po, read-out: TGI
Description: Antitumor activity against human U87 cells xenografted in BALB/c mouse at 75 mg/kg, po administered in BIDx5 schedule

SK-OV-3 = assay: animal or person; settings: Mus musculus, SK-OV-3, po, read-out: TGI
Description: Antitumor activity against human SKOV3 cells xenografted in BALB/c mouse at 124 mg/kg, po administered in QDx5 schedule

PANC-1 = assay: animal or person; settings: Mus musculus, PANC-1, po, read-out: TGI
Description: Antitumor activity against human PANC1 cells xenografted in BALB/c mouse at 124 mg/kg, po administered in QDx5 schedule

Sequence of Heat shock protein HSP 90-beta (P08238 whole entry): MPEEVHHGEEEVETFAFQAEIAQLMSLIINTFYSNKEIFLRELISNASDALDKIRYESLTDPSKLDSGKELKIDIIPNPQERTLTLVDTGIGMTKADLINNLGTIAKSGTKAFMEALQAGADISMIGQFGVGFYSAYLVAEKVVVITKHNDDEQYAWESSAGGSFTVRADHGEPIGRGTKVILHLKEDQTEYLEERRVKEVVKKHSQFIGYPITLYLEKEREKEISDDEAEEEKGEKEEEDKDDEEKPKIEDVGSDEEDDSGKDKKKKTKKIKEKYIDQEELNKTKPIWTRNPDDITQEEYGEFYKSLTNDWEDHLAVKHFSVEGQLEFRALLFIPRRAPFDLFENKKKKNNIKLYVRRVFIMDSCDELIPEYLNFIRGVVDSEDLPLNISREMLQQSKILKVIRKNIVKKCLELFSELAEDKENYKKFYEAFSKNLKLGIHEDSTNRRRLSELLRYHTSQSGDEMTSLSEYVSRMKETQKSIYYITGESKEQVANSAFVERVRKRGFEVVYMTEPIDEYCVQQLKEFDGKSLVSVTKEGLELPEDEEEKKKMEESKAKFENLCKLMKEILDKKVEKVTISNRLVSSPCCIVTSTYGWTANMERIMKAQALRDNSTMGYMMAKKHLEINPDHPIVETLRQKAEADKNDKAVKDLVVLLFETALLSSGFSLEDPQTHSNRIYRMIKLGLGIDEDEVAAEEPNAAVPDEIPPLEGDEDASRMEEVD

Work on `CCCCn1c(Cc2ccc(OC)c(OC)c2OC)nc2c(N)ncnc21` yielded an Activity [1] of 40 µM.
`CC1(C)CC(=O)c2c(C(F)(F)F)nn(-c3ccc(C(N)=O)c(N[C@H]4CC[C@H](O)CC4)c3)c2C1` [SNX-2112] gave a half-life [2] of 180 min and a half-life [3] of 600 min.
For `CO[C@H]1/C=C\C=C(/C)C(=O)NC2=CC(=O)C(NCCN(C)C)=C(C[C@@H](C)C[C@H](OC)[C@H](O)[C@@H](C)/C=C(\C)[C@@H]1OC(N)=O)C2=O` [ALVESPIMYCIN], the MTD (Rattus norvegicus) was 12 mg/m2, the MTD (Canis familiaris) was 8 mg/m2 and the half-life [4] was 26 min.
In the case of `COc1ccc(I)c(Sc2nc3c(N)ncnc3n2CCNCC(C)(C)C)c1`, the Activity [1] is reported as 0.03 µM.
For `COc1c(C)cnc(Cn2cnc3c(Cl)nc(N)nc32)c1C` [BIIB021], the Cmax [5] was 31 µM, the Tmax [6] was 6 min and the AUC [7] was 15 µM·h. For the same compound, the half-life [8] was 48 min, the Activity (Mus musculus) was 3% and the inhibition in vivo at 125 mg/kg (NCI-N87) was 87%. It also gave an inhibition in vivo at 120 mg/kg (BT-474) of 94%, an inhibition in vivo at 120 mg/kg (animal or person [9]) of 85% and an inhibition in vivo at 75 mg/kg (animal or person [10]) of 70%. For the same compound, the inhibition in vivo at 124 mg/kg (SK-OV-3) was 67% and the inhibition in vivo at 124 mg/kg (PANC-1) was 51%.

From ChEMBL document CHEMBL1154885, “Heat shock protein 90: inhibitors in clinical trials” (J Med Chem, 2010)
